Experimental findings from patent US20230357292A1, “MULTI-COORDINATE GOLD-PHOSPHINE COMPOUNDS AND METHOD OF USE” (University of Kentucky Research Foundation, priority 2020, published 2023) are described below.

Broadly, the IC50 is the concentration that gives 50% inhibition.

One data set deals with MDA-MB-231 cells. The settings on record: 2 mM for 3 h, FACS. As for the experimental part: MDA-MB-231 cells were seeded at a density of 5×10^5 cells/well in a 6-well clear bottom plate with a final media volume of 2 mL. The cells were allowed to adhere overnight at 37° C. A stock of AuPhos-89 was prepared fresh in DMSO/DMEM (% v/v=20:80) and added to the desired well at a concentration of 1 μM with a final volume of 2.5 mL and incubated for 15 h at 37° C. A stock of H2O2 was prepared in PBS and the cells treated at a final concentration of 2 mM for 3 hours and used as positive control. When ready for analysis, medium was removed and the wells washed with 5 mL of PBS. The cells were trypsinized (1 mL), 5 mL of DMEM were added to each well, and total volume collected and centrifuged to pellet the cells. The cells were resuspended in 2 mL of fresh media, counted, and reconstituted to a concentration of 1×10^5 cells/mL. The cells were centrifuged again, and the pellet suspended in 500 μL of Annexin binding buffer. To each sample was added 5 μl of Annexin V-FITC and 5 μl PI and incubated in the dark at room temperature for 5 minutes. The samples were then subjected to FACS analysis.

For another data set, the system named is MDA-MB-231 (breast). The experiment in a line: Cell viability, crystal violet assay, MDA-MB-231. The settings on record: for IC50: MDA-MB-231 (breast), 4,000 cells/well, treated 72 h, mean ± SD (n = 3). Type of data set: cell-based, human. From the text: The plates were washed with water and dried again.
Another data set has as its system H460 (lung). The settings on record: H460 (lung), 4,000 cells/well, treated 72 h, mean ± SD (n = 3). As for the experimental part:
(§1) All cell lines (OVCAR8, A2780, H460, and MDA-MB-231) were cultivated in RPMI or DMEM supplemented with 10% FBS, 1% penicillin/streptomycin, and 1% amphotericin. All cells were grown at 310K in a humidified atmosphere containing 5% CO2.
(§2) Various established human ovarian, lung, and breast cancer cell lines were seeded in 96-well plates (4000 cells/well) and were incubated with RPMI 1640 or DMEM (100 μL) supplemented with 10% FBS, 1% penicillin/streptomycin, and 1% amphotericin for 24 h and at 37° C. They were then treated with AuPhos compounds at increasing concentrations for 72 h from stock solutions following serial dilutions, in which AuPhos stock solutions were prepared in DMSO/media mixture (% v/v=20:80). Thereafter, cellular viability was assessed via the established crystal violet colorimetric assay. In brief, cells were fixed with 50 μL of a 1% glutaraldehyde solution and placed in an incubator (37° C., 5% CO2) for 1 hour. The plates were washed with water by running them under a gentle flow of tap water. The plates were air-dried, and crystal violet reagent was added to each well and allowed to incubate at room temperature for 20 min. The plates were washed with water and dried again. Methanol (200 μL/well) was added to each well, and the measurements of absorbance were subsequently performed using a Biotek Synergy H1 Plate Reader at 570 nm (peak absorbance).

In the next data set the test system is OVCAR8 (ovarian). The settings on record: OVCAR8 (ovarian), 4,000 cells/well, treated 72 h, mean ± SD (n = 3). How it is done: as §1, §2
Another data set relates to A2780 (ovarian). Particulars: A2780 (ovarian), 4,000 cells/well, treated 72 h, mean ± SD (n = 3). How it is done: as §1, §2
The next data set relates to 4T1 tumor. The experiment in a line: In vivo comparative experiment of AuPhos-89 and cisplatin, 4T1, IP. Also noted: species or system BALB/c mice. As for the experimental part: Mice were implanted with 2,000,000 4T1 cells subcutaneously on their flanks. […] The control group was injected with a PBS solution containing 1.5% DMSO and 12% Kolliphor. Injection and tumor-size/body-weight measurement was performed three days a week.
Mice organs (heart, lung, liver, kidney, spleen, and tumor) were fixed in freshly prepared paraformaldehyde (4% in PBS), the fixation time was 24 hours. And those processed for paraffin sectioning. The organs sections of 5 μm were stained with H&E staining and used for histological examination of the organs and tumor. A total of 5 sections per tissues (spanning the full depth of the organ) were examined and photographed using a Nikon Eclipse 55i microscope. […]

Turning to `OO` [hydrogen peroxide, reference compound], in the data set with MDA-MB-231 cells, the “apoptosis, positive control” value is recorded as “significant apoptosis”.

`c1ccc(P(c2ccccc2)c2ccccc2P(c2ccccc2)c2ccccc2)cc1` [1,2-Bis(diphenylphosphino)benzene, reference compound] displayed an IC50 in the data set on MDA-MB-231 (breast) (Homo sapiens) of 1370 ± 450 nM. In addition, in the data set with MDA-MB-231 (breast) (MDA-MB-231), the “less cytotoxicity compared with the AuPhos compounds (Table 1)” value is approximately 6 times.

In the case of `Cl.O=Cc1ccc(-c2ccccn2)[c]([Au-]2([Cl])[P+](c3ccccc3)(c3ccccc3)c3ccccc3[P+]2(c2ccccc2)c2ccccc2)c1` [AuPhos-88, (4-(2-pyridyl)benzaldehyde)[1,2-Bis(diphenylphosphino)benzene]gold(III) Dichloride], the IC50 in the data set on MDA-MB-231 (breast) turned out to be 370 ± 210 nM; with H460 (lung) it was 400 ± 30 nM; with OVCAR8 (ovarian), 850 ± 70 nM; with A2780 (ovarian), 270 ± 20 nM.

Regarding `Cl.[Cl][Au-]1([c]2ccccc2Cc2ccccn2)[P+](c2ccccc2)(c2ccccc2)c2ccccc2[P+]1(c1ccccc1)c1ccccc1` [AuPhos-84, (2-benzylpyridine)[1,2-Bis(diphenylphosphino)benzene]gold(III) Dichloride], the IC50 came to 240 ± 160 nM in the data set with MDA-MB-231 (breast), 760 ± 150 nM in the data set with H460 (lung), 1240 ± 140 nM in the data set on OVCAR8 (ovarian) and 250 ± 60 nM in the data set with A2780 (ovarian).

With `Cl.O=C(c1ccccn1)c1cccc[c]1[Au-]1([Cl])[P+](c2ccccc2)(c2ccccc2)c2ccccc2[P+]1(c1ccccc1)c1ccccc1` [AuPhos-85, (2-benzoylpyridine)[1,2-Bis(diphenylphosphino)benzene]gold(I) Dichloride], the IC50 in the data set on MDA-MB-231 (breast) is 260 ± 60 nM; in the data set with H460 (lung) it was 340 ± 70 nM; with OVCAR8 (ovarian), 640 ± 110 nM; in the data set with A2780 (ovarian), 150 ± 30 nM.

`Cc1ccc(-c2ccccn2)[c]([Au-]2([Cl])[P+](c3ccccc3)(c3ccccc3)c3ccccc3[P+]2(c2ccccc2)c2ccccc2)c1.Cl` [AuPhos-87, (2-(p-tolyl)pyridine)[1,2-Bis(diphenylphosphino)benzene]gold(III) Dichloride]: the IC50 was 450 ± 190 nM in the data set on MDA-MB-231 (breast), 710 ± 90 nM with H460 (lung), 820 ± 760 nM in the data set on OVCAR8 (ovarian) and 180 ± 40 nM in the data set on A2780 (ovarian).

For “(2-phenoxypyridine)[1,2-Bis(diphenylphosphino) benzene]gold(III) Dichloride [AuPhos-83]”, the IC50 in the data set on MDA-MB-231 (breast) stood at 220 ± 70 nM; with H460 (lung) it was 270 ± 60 nM; in the data set with OVCAR8 (ovarian), 890 ± 140 nM; in the data set with A2780 (ovarian), 220 ± 10 nM.

In the case of `N.N.[Cl][Pt][Cl]` [cisplatin, reference compound], the “tumor inhibition compared with the control group” value in the data set on 4T1 tumor (AuPhos-89 10 mg kg−1 IP, cisplatin 3 mg kg−1 IP) was “significant tumor inhibition”. Besides, in the data set with 4T1 tumor (six treatments, thrice a week, IP, AuPhos-89 10 mg kg−1, cisplatin 3 mg/kg, versus vehicle control), the tumor volume entry was “comparable results to AuPhos-89 treatment”.

`Cl.[Cl][Au-]1([c]2cccc3ccc4cccnc4c23)[P+](c2ccccc2)(c2ccccc2)c2ccccc2[P+]1(c1ccccc1)c1ccccc1` [AuPhos-86, (benzo[h]quinoline)[1,2-Bis(diphenylphosphino)benzene]gold(III) Dichloride]: the concentration for half-maximal inhibition (IC50) in the data set on MDA-MB-231 (breast) came to 290 ± 40 nM; with H460 (lung), 340 ± 70 nM; in the data set on OVCAR8 (ovarian), 820 ± 440 nM; with A2780 (ovarian), 330 ± 40 nM.

Regarding `Cl.[Cl][Au-]1([c]2ccccc2Nc2ccccn2)[P+](c2ccccc2)(c2ccccc2)c2ccccc2[P+]1(c1ccccc1)c1ccccc1` [AuPhos-82, (2-anilinopyridine)[1,2-Bis(diphenylphosphino)benzene]gold(III) Dichloride], the concentration for half-maximal inhibition (IC50) in the data set on MDA-MB-231 (breast) stood at 220 ± 200 nM; with H460 (lung), 1040 ± 170 nM; in the data set with OVCAR8 (ovarian) it was 850 ± 60 nM; with A2780 (ovarian), 340 ± 40 nM.
